In brackets after ≈: the same amount, converted by molar mass.
Tests used:
[1] = test system: Mycobacterium tuberculosis; assay: Antimycobacterial activity against multidrug resistance Mycobacterium tuberculosis 16833 clinical isolate incubated for 7 days by microplate alamar blue assay; type: functional; conditions: Mycobacterium tuberculosis, 16833, 168 h; time 7 day
[2] = Selectivity index, ratio of CC50 for African green monkey Vero cells to MIC for multidrug resistance Mycobacterium tuberculosis 16995 clinical isolate; type: toxicity; conditions: read-out: Selectivity Index
[3] = test system: Mycobacterium tuberculosis; assay: Antimycobacterial activity against multidrug resistance Mycobacterium tuberculosis 16995 clinical isolate incubated for 7 days by microplate alamar blue assay; type: functional; conditions: Mycobacterium tuberculosis, 16995, 168 h; time 7 day

| SMILES | MIC [1] | selectivity ratio [2] | MIC [3] |
| --- | --- | --- | --- |
| O=c1nc(N2CCN(/N=C/c3ccc(OC(F)(F)F)cc3)CC2)sc2c([N+](=O)[O-])cc(C(F)(F)F)cc12 | < 0.016 µg/mL | > 4000 | < 0.016 µg/mL |
| CC(NN1CCN(c2nc(=O)c3cc(C(F)(F)F)cc([N+](=O)[O-])c3s2)CC1)c1ccc(OC(F)(F)F)cc1 (configuration not stated) | 0.0196 µg/mL (≈ 0.0348 µM) | > 3620 | 0.0177 µg/mL (≈ 0.0314 µM) |
| O=c1nc(N2CCN(Nc3ccc(C(F)(F)F)cc3)CC2)sc2c([N+](=O)[O-])cc(C(F)(F)F)cc12 | < 0.016 µg/mL | > 4000 | < 0.016 µg/mL |
| O=c1nc(N2CCN(NCc3ccc(Br)cc3)CC2)sc2c([N+](=O)[O-])cc(C(F)(F)F)cc12 | < 0.016 µg/mL | > 4000 | < 0.016 µg/mL |
| O=c1nc(N2CCN(NCc3ccc(F)cc3)CC2)sc2c([N+](=O)[O-])cc(C(F)(F)F)cc12 | < 0.016 µg/mL | > 4000 | < 0.016 µg/mL |
| COc1ccc(CNN2CCN(c3nc(=O)c4cc(C(F)(F)F)cc([N+](=O)[O-])c4s3)CC2)cc1 | < 0.016 µg/mL | > 2360 | 0.0271 µg/mL (≈ 0.0547 µM) |
| CC(C)CN(CC(C)C)N1CCN(c2nc(=O)c3cc(C(F)(F)F)cc([N+](=O)[O-])c3s2)CC1 | < 0.016 µg/mL | > 4000 | < 0.016 µg/mL |
| O=c1nc(N2CCN(NCc3ccc(OC(F)(F)F)cc3)CC2)sc2c([N+](=O)[O-])cc(C(F)(F)F)cc12 | < 0.016 µg/mL | > 4000 | < 0.016 µg/mL |
| O=c1nc(N2CCN(Nc3ccc(OC(F)(F)F)cc3)CC2)sc2c([N+](=O)[O-])cc(C(F)(F)F)cc12 | < 0.016 µg/mL | > 4000 | < 0.016 µg/mL |
| O=c1nc(N2CCN(NCc3ccc(Cl)cc3)CC2)sc2c([N+](=O)[O-])cc(C(F)(F)F)cc12 | < 0.016 µg/mL | > 4000 | < 0.016 µg/mL |
| Cc1cccc(F)c1CNN1CCN(c2nc(=O)c3cc(C(F)(F)F)cc([N+](=O)[O-])c3s2)CC1 | 0.0152 µg/mL (≈ 0.0306 µM) | > 3930 | 0.0163 µg/mL (≈ 0.0328 µM) |
| CN(c1ccc(OC(F)(F)F)cc1)N1CCN(c2nc(=O)c3cc(C(F)(F)F)cc([N+](=O)[O-])c3s2)CC1 | < 0.016 µg/mL | > 4000 | < 0.016 µg/mL |
| O=c1nc(N2CCN(NC3CCCCC3)CC2)sc2c([N+](=O)[O-])cc(C(F)(F)F)cc12 | < 0.016 µg/mL | > 4000 | < 0.016 µg/mL |
| CON=C1CCC(N(C)N2CCN(c3nc(=O)c4cc(C(F)(F)F)cc([N+](=O)[O-])c4s3)CC2)CC1 (configuration not stated) | < 0.016 µg/mL | > 4000 | < 0.016 µg/mL |
| Cc1ccc(CNN2CCN(c3nc(=O)c4cc(C(F)(F)F)cc([N+](=O)[O-])c4s3)CC2)cc1 | < 0.016 µg/mL | > 4000 | < 0.016 µg/mL |
| CN(CC1CCCCC1)N1CCN(c2nc(=O)c3cc(C(F)(F)F)cc([N+](=O)[O-])c3s2)CC1 | < 0.016 µg/mL | > 4000 | < 0.016 µg/mL |
| O=c1nc(N2CCN(NCC3CCCC3)CC2)sc2c([N+](=O)[O-])cc(C(F)(F)F)cc12 | < 0.016 µg/mL | > 4000 | < 0.016 µg/mL |
| O=c1nc(N2CCN(NCc3cccc(C(F)(F)F)c3)CC2)sc2c([N+](=O)[O-])cc(C(F)(F)F)cc12 | < 0.016 µg/mL | > 4000 | < 0.016 µg/mL |
| CC(c1ccc(OC(F)(F)F)cc1)N(C)N1CCN(c2nc(=O)c3cc(C(F)(F)F)cc([N+](=O)[O-])c3s2)CC1 (configuration not stated) | < 0.016 µg/mL | > 4000 | < 0.016 µg/mL |
| O=c1nc(N2CCN(NCC3CCCCC3)CC2)sc2c([N+](=O)[O-])cc(C(F)(F)F)cc12 | < 0.016 µg/mL | > 1830 | < 0.016 µg/mL |
| C/C(=N\N1CCN(c2nc(=O)c3cc(C(F)(F)F)cc([N+](=O)[O-])c3s2)CC1)c1ccc(OC(F)(F)F)cc1 | < 0.016 µg/mL | > 4000 | < 0.016 µg/mL |
| O=c1nc(N2CCN(NCc3ccc(C(F)(F)F)cc3)CC2)sc2c([N+](=O)[O-])cc(C(F)(F)F)cc12 | < 0.016 µg/mL | > 4000 | < 0.016 µg/mL |
| O=c1nc(N2CCN(NCc3cc(F)cc(F)c3)CC2)sc2c([N+](=O)[O-])cc(C(F)(F)F)cc12 | < 0.016 µg/mL | > 4000 | < 0.016 µg/mL |
| O=c1nc(N2CCN(NCCC3CCCCC3)CC2)sc2c([N+](=O)[O-])cc(C(F)(F)F)cc12 | 0.0357 µg/mL (≈ 0.0735 µM) | > 2180 | 0.0294 µg/mL (≈ 0.0606 µM) |
| CC(C)(C)c1ccc(CNN2CCN(c3nc(=O)c4cc(C(F)(F)F)cc([N+](=O)[O-])c4s3)CC2)cc1 | < 0.016 µg/mL | > 4000 | < 0.016 µg/mL |
| NNC(=O)c1ccncc1 [ISONIAZID] | > 10 µg/mL | – | > 10 µg/mL |
| O=c1nc(N2CCN(CC3CCCCC3)CC2)sc2c([N+](=O)[O-])cc(C(F)(F)F)cc12 [MACOZINONE] | < 0.016 µg/mL | > 4000 | < 0.016 µg/mL |
| CO[C@H]1/C=C/O[C@@]2(C)Oc3c(C)c(O)c4c(O)c(c(/C=N/N5CCN(C)CC5)c(O)c4c3C2=O)NC(=O)/C(C)=C\C=C\[C@H](C)[C@H](O)[C@@H](C)[C@@H](O)[C@@H](C)[C@H](OC(C)=O)[C@@H]1C [RIFAMPIN] | > 10 µg/mL | – | > 10 µg/mL |

Source: ChEMBL document CHEMBL4814047, “Design, synthesis and biological activity of N-(amino)piperazine-containing benzothiazinones against Mycobacterium tuberculosis” (Eur J Med Chem, 2021)
